We go through five molecules from article PMC5808360, “Neutral Porphyrin Derivative Exerts Anticancer Activity by Targeting Cellular Topoisomerase I (Top1) and Promotes Apoptotic Cell Death without Stabilizing Top1-DNA Cleavage Complexes” (Journal of Medicinal Chemistry, 2017).

Structures are written as SMILES. Peptide text beside a SMILES is read from it. * marks the point of attachment. Cbz = O=C(OCc1ccccc1)*

Experiment [1] deals with T1, EGFP-human Top1 in MCF7 cells (Homo sapiens, UniProt P11387).
T1 construct: expressed in transfected cells; host or cells: MCF7 cells, transient transfection (Lipofectamine 2000)
T1 sequence (P11387 1-765): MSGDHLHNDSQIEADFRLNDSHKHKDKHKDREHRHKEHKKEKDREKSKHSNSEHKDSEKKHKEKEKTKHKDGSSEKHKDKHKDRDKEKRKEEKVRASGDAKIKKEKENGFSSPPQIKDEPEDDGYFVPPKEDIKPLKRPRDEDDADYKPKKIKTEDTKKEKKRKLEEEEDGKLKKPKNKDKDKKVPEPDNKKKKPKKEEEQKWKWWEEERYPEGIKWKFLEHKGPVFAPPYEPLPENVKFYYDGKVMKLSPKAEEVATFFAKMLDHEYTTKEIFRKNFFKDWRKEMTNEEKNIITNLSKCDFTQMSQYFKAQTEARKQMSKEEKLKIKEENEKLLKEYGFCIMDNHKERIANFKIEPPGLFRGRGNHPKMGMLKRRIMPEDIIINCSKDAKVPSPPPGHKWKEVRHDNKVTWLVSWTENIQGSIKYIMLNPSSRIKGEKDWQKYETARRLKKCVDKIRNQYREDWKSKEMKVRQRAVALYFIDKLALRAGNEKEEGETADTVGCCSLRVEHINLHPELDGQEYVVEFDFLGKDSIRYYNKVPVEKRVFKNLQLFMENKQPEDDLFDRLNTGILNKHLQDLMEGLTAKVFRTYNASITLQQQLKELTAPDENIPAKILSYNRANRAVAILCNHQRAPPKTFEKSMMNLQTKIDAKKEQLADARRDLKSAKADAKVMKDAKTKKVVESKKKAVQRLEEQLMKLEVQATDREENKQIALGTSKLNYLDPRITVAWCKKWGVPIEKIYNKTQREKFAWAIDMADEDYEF
The experiment can be described thus: FRAP of EGFP-Top1 in live MCF7 cells. It counts as cell-based. Particulars: 5 μM, 10 min. How it is done:
To obtain direct evidence for compound 8 mediated inhibition of Top1cc formation in live human carcinoma cells, we used MCF7 cells and transiently expressed EGFP-Top1. Live cells expressing ectopic Top1 were analyzed under laser confocal microscopy equipped with fluorescence recovery after photobleaching (FRAP) technology.[40]−[42]
Photobleaching experiments were performed as described formerly[40]−[42] using Andor Spining disk inverted confocal laser-scanning microscope equipped with a 60×/1.42 NA oil-immersion objective (Olympus) and with a CO2-controlled on-stage heated environmental chamber set to 37 °C. FRAP analyses were carried out with living MCF7 cells ectopically expressing EGFP-human Top1 grown on chamber cover glass (Genetix, India) and drug treated as indicated. For FRAP analysis, a subnuclear spot was bleached for 30 ms by solid-state laser line (488 nm for EGFP) adapted to the fluorescent protein of interest and FRAP curves were generated individually normalized to the prebleach signal as described previously.[42]

In experiment [2] the target is T2, cellular Top1 in MCF7 cells (Homo sapiens, UniProt P11387).
T2 construct: endogenous in cells; host or cells: MCF7 cells
T2 sequence (P11387 2-765 limits assumed): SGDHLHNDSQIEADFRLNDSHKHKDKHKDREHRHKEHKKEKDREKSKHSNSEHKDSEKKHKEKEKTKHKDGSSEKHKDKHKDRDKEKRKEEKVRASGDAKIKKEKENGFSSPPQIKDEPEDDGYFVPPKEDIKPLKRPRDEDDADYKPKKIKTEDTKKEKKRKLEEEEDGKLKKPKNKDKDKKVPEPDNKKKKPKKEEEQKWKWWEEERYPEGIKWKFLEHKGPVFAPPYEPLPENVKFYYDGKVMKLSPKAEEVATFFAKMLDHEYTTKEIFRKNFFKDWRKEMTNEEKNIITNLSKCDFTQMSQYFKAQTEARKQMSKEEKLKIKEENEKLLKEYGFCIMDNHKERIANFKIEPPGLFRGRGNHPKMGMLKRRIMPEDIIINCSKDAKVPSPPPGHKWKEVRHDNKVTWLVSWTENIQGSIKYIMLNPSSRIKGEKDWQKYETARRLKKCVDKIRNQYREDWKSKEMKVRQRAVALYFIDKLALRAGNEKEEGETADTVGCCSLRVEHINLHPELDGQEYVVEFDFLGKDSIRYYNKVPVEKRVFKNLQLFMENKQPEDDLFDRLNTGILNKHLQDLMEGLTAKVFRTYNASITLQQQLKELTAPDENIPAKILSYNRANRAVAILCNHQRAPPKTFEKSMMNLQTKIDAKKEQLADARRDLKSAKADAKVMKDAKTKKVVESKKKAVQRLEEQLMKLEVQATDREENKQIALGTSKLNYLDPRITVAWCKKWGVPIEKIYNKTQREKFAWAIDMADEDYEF
The experiment in a line: Western blot of Top1 in whole cell extracts of treated MCF7 cells. It counts as cell-based. The conditions noted are these: MG132 100 nM preincubated 4 h, then compound 8 10 μM 12 h. How it is done:
Because compound 8 binds with free Top1 (Figure 3) and inhibits Top1cc formation in live cells (Figure 2E), we examined the impact of compound 8 on endogenous Top1. Cellular lysates were prepared from MCF7 cells treated with compound 8 for indicated times and were analyzed by Western blotting. […] Because proteasome has been implicated for Top1 degradation,[7],[9],[45] we used proteasome specific inhibitor (MG132) to investigate Top1 proteolysis in compound 8 treated cells.
Preparation of whole cell extracts from MCF7 cells and immunoblotting were carried out as described.[6],[40],[41] Immunoreactivity was detected using ECL chemiluminescence reaction (Amersham) under ChemiDoc MP system (Bio-Rad, USA).
For orientation: In western blotting, separated proteins are transferred to a membrane and probed.

In experiment [3] the test system is MCF7 cells. The experiment can be described thus: Alkaline comet assay. Type of experiment: cell-based, human. Particulars: NAC 10 mM pretreatment 30 min before compound 8. The text has this: Therefore, we directly measured compound 8 induced DNA strand breaks at single cellular level by using alkaline comet assays (Figure 5B,C) and simultaneously measured the apoptotic cell death by immunofluorescence staining of the apoptosis marker phosphatidylserine with annexin V-FITC antibody (Figure 5D,E). Compound 8 treated MCF7 cells accumulate ∼8-fold increase in DNA strand breaks (Figure 5B and Figure 5C) compared to untreated cells, resulting in ∼7-fold elevation in compound 8 induced annexin V(+) apoptotic cells (Figure 5D and Figure 5E). […] Therefore, we conclude that compound 8 triggers reactive oxygen species induced DNA degradation and apoptotic cell death without stabilizing Top1-DNA cleavage complexes.
To detect the levels of drug-induced DNA breaks, after treatment MCF7 cells were subjected to alkaline comet assays according to the manufacturer’s instructions (Trevigen, USA) and comet length was measured and was scored for at least 50 cells. Distributions of comet lengths were compared using the Student’s t-test as described previously.[13],[40],[50]

Experiment [4] has as its system MCF7 cells. The experiment in a line: Measurement of intracellular ROS (H2DCFDA). The conditions noted are these: NAC 10 mM pretreatment 30 min before compound 8 10 μM. Type of experiment: cell-based, human. The text has this:
Next, to investigate the mechanistic link between compound 8 induced cellular Top1 inhibition (Figure 1), degradation (Figure 4A and Figure 4B), and activation of apoptosis (Figure 4C), we tested reactive oxygen species (ROS) formation and accumulation of oxidative DNA fragmentation[15],[17],[46] in compound 8 treated MCF7 cells. […] We observed a marked elevation (∼3- to 5-fold) in ROS accumulation (Figure 5A) under similar conditions that activate PARP1 cleavage (Figure 4C). Nonetheless, MCF7 cells pretreated with N-acetylcysteine (NAC), a specific inhibitor of ROS, reduced compound 8 induced ROS generation by ∼3-fold (Figure 5A).
Intracellular ROS was detected in drug-treated MCF7 cells with or without pretreatment of N-acetyl-L-cysteine (NAC) for indicated time as described.[13],[46] Briefly, cells were washed and resuspended in 500 μL of 1× PBS and were loaded with 2 μg/mL of H2DCFDA (Molecular Probes) for 30 min, and green fluorescence of 2,7-dichlorofluorescein was measured at 515 nm by spectrofluorometer.

Experiment [5] has as its system relaxed pBS (SK+) plasmid DNA. The experiment in a line: Topoisomerase I unwinding assay (DNA intercalation). Particulars: m-AMSA and etoposide 50 and 300 μM; compound 8 50, 100, 300 μM. The procedure: Therefore, compound 8 interacts in reversible manner with Top1 to inhibit the plasmid relaxation activity (Figure 1).
The competence of the drug to intercalate into plasmid DNA was determined by Top1 unwinding assay.[36],[44] Assays were performed with 50 fmol of pBluscript (SK+) DNA in the presence or absence of compound 8, m-AMSA, and etoposide at indicated concentrations. Excess of DNA topoisomerase I was reacted with supercoiled plasmid DNA to generate relaxed DNA for the unwinding assays. The relaxed DNA was purified by proteolytic digestion with proteinase K at 37 °C, followed by phenol/chloroform extraction and ethanol precipitation. The unwinding assays were carried out at 37 °C for 15 min with independent compounds and were analyzed by 1% agarose gel as described above.

With `CC[C@@]1(O)C(=O)OCc2c1cc1n(c2=O)Cc2cc3ccccc3nc2-1` [CPT, Camptothecin, reference compound], the “Increase of Top1 immobile population (FRAP)” value in experiment [1] was 40–50%.

Consider `CC(C)C[C@@H](C=O)NC(=O)[C@H](CC(C)C)NC(=O)[C@H](CC(C)C)NC(=O)OCc1ccccc1` [MG132, reference compound] (Cbz-Leu-Leu-Leu-aldehyde), for which, in experiment [2], the “Effect on 8-induced degradation of Top1” value is recorded as “abrogated”.

With `CC(=O)N[C@@H](CS)C(=O)O` [NAC, N-acetyl-L-cysteine], the “Decrease in compound 8 induced DNA breaks” value in experiment [3] is reported as roughly 4 fold. Further, the “Reduction of compound 8 induced ROS generation” value in experiment [4] is recorded as roughly 3 fold.

As for `COc1cc([C@@H]2c3cc4c(cc3[C@@H](O[C@@H]3O[C@@H]5CO[C@@H](C)O[C@H]5[C@H](O)[C@H]3O)[C@H]3COC(=O)[C@H]23)OCO4)cc(OC)c1O` [etoposide], the “Negative supercoiling of relaxed plasmid DNA (intercalation)” value in experiment [5] is given as “failed to show such effect”.

As to `COc1cc(NS(C)(=O)=O)ccc1Nc1c2ccccc2nc2ccccc12` [m-AMSA], the “Negative supercoiling of relaxed plasmid DNA (intercalation)” value in experiment [5] was “incites a net negative supercoiling of the relaxed plasmid DNA”.
